Laboratory results as given in ChEMBL document CHEMBL3588828, “A Selective, Cell-Permeable Nonphosphorylated Bicyclic Peptidyl Inhibitor against Peptidyl-Prolyl Isomerase Pin1” (J Med Chem, 2015).
pKd: −log10 of the molar value.

target: Peptidyl-prolyl cis-trans isomerase NIMA-interacting 1 (Homo sapiens, UniProt Q13526, S16A/Y23A); test: Binding affinity to N-terminal MBP fused and Texas-red-labeled full-length human Pin1 S16A/Y23A mutant expressed in Escherichia coli assessed as increase in fluorescence anisotropy by spectrofluorimetry; conditions: read-out: Kd
Sequence (Q13526 whole entry S16A/Y23A, the tested form may be a part): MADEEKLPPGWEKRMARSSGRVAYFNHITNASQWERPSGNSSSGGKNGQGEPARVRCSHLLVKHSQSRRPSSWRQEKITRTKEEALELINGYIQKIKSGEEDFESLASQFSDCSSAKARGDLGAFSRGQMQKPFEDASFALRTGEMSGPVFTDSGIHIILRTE

Compound | pKd
C[C@H]1NC(=O)[C@H](CC(=O)O)NC(=O)[C@H](CCCNC(=N)N)NC(=O)[C@H](Cc2ccc3ccccc3c2)NC(=O)[C@H]2CCCCN2C(=O)[C@@H](CC(=O)O)NC(=O)CN(C)C(=O)[C@@H]2CCCN2C(=O)c2cc3cc(c2)C(=O)NC[C@H](NC1=O)C(=O)N[C@@H](Cc1ccccc1)C(=O)N[C@@H](Cc1ccc2ccccc2c1)C(=O)N[C@@H](CCCNC(=N)N)C(=O)N[C@@H](CCCNC(=N)N)C(=O)N[C@@H](CCCNC(=N)N)C(=O)N[C@@H](CCCNC(=N)N)C(=O)N[C@H](C(=O)N[C@@H](CCCCN)C(=O)O)CNC3=O | 5.50
CN1CC(=O)N[C@H](CC(=O)O)C(=O)N2CCCC[C@@H]2C(=O)N[C@@H](Cc2ccc3ccccc3c2)C(=O)N[C@@H](CCCNC(=N)N)C(=O)NCCC(=O)NCCC(=O)N[C@H]2CNC(=O)c3cc(cc(c3)C(=O)N3CCC[C@H]3C1=O)C(=O)NC[C@@H](C(=O)N[C@@H](CCCCN)C(=O)O)NC(=O)[C@H](CCCNC(=N)N)NC(=O)[C@H](CCCNC(=N)N)NC(=O)[C@H](CCCNC(=N)N)NC(=O)[C@H](CCCNC(=N)N)NC(=O)[C@H](Cc1ccc3ccccc3c1)NC(=O)[C@H](Cc1ccccc1)NC2=O | 5.32
C[C@@H]1NC(=O)[C@H](CCCNC(=N)N)NC(=O)[C@H](Cc2ccc3ccccc3c2)NC(=O)[C@H]2CCCCN2C(=O)[C@@H](CC(=O)O)NC(=O)CN(C)C(=O)[C@@H]2CCCN2C(=O)c2cc3cc(c2)C(=O)NC[C@H](NC(=O)[C@@H](C)NC1=O)C(=O)N[C@@H](Cc1ccccc1)C(=O)N[C@@H](Cc1ccc2ccccc2c1)C(=O)N[C@@H](CCCNC(=N)N)C(=O)N[C@@H](CCCNC(=N)N)C(=O)N[C@@H](CCCNC(=N)N)C(=O)N[C@@H](CCCNC(=N)N)C(=O)N[C@H](C(=O)N[C@@H](CCCCN)C(=O)O)CNC3=O (stereo in doubt; 3) | 6.06
C[C@@H]1NC(=O)[C@H](CCCNC(=N)N)NC(=O)[C@H](Cc2ccc3ccccc3c2)NC(=O)[C@H]2CCCCN2C(=O)[C@@H]([C@H](C)O)NC(=O)[C@H](Cc2ccc(F)cc2)NC(=O)[C@@H](Cc2ccccc2)NC(=O)c2cc3cc(c2)C(=O)NC[C@H](NC(=O)[C@@H](C)NC1=O)C(=O)N[C@@H](Cc1ccccc1)C(=O)N[C@@H](Cc1ccc2ccccc2c1)C(=O)N[C@@H](CCCNC(=N)N)C(=O)N[C@@H](CCCNC(=N)N)C(=O)N[C@@H](CCCNC(=N)N)C(=O)N[C@@H](CCCNC(=N)N)C(=O)N[C@H](C(=O)N[C@@H](CCCCN)C(=O)O)CNC3=O | 6.17
C[C@@H]1NC(=O)[C@H](CCCNC(=N)N)NC(=O)[C@H](Cc2ccc3ccccc3c2)NC(=O)[C@H]2CCCCN2C(=O)[C@@H]([C@H](C)O)NC(=O)[C@H](Cc2ccc(F)cc2)NC(=O)[C@@H](Cc2ccccc2)NC(=O)c2cc3cc(c2)C(=O)NC[C@@H](C(=O)N[C@@H](CCCCN)C(=O)O)NC(=O)[C@H](CCCNC(=N)N)NC(=O)[C@H](CCCNC(=N)N)NC(=O)[C@H](CCCNC(=N)N)NC(=O)[C@H](CCCNC(=N)N)NC(=O)[C@H](Cc2ccc4ccccc4c2)NC(=O)[C@H](Cc2ccccc2)NC(=O)[C@H](CNC3=O)NC1=O | 6.05
C[C@@H]1NC(=O)[C@H](CCCNC(=N)N)NC(=O)[C@H](Cc2ccc3ccccc3c2)NC(=O)[C@H]2CCCCN2C(=O)[C@@H]([C@H](C)O)NC(=O)[C@H](Cc2ccc(F)cc2)NC(=O)[C@@H](Cc2ccccc2)NC(=O)c2cc3cc(c2)C(=O)NC[C@H](NC(=O)[C@@H](Cc2ccccc2)NC1=O)C(=O)N[C@H](CCCNC(=N)N)C(=O)N[C@@H](CCCNC(=N)N)C(=O)N[C@H](CCCNC(=N)N)C(=O)N[C@@H](CCCNC(=N)N)C(=O)N[C@@H](Cc1ccc2ccccc2c1)C(=O)N[C@@H](Cc1ccccc1)C(=O)N[C@H](C(=O)N[C@@H](CCCCN)C(=O)O)CNC3=O | 5.51
C[C@@H]1NC(=O)[C@H](CCCNC(=N)N)NC(=O)[C@H](Cc2ccc3ccccc3c2)NC(=O)[C@H]2CCCCN2C(=O)[C@@H](CC(=O)O)NC(=O)CN(C)C(=O)[C@@H]2CCCN2C(=O)c2cc3cc(c2)C(=O)NC[C@H](NC(=O)[C@@H](C)NC1=O)C(=O)N[C@@H](Cc1ccccc1)C(=O)N[C@@H](Cc1ccc2ccccc2c1)C(=O)N[C@@H](CCCNC(=N)N)C(=O)N[C@@H](CCCNC(=N)N)C(=O)N[C@@H](CCCNC(=N)N)C(=O)N[C@@H](CCCNC(=N)N)C(=O)N[C@H](C(=O)N[C@@H](CCCCN)C(=O)O)CNC3=O (stereo in doubt; 10) | 5.47

The remaining compounds from weak to strong by pKd, led by results:

pKd | Compound
5.60 | C[C@@H]1NC(=O)[C@H](CCCNC(=N)N)NC(=O)[C@H](Cc2ccc3ccccc3c2)NC(=O)[C@H]2CCCCN2C(=O)[C@@H](CC(=O)O)NC(=O)CN(C)C(=O)[C@@H]2CCCN2C(=O)c2cc3cc(c2)C(=O)NC[C@H](NC(=O)[C@@H](C)NC(=O)[C@@H](C)NC1=O)C(=O)N[C@@H](Cc1ccccc1)C(=O)N[C@@H](Cc1ccc2ccccc2c1)C(=O)N[C@@H](CCCNC(=N)N)C(=O)N[C@@H](CCCNC(=N)N)C(=O)N[C@@H](CCCNC(=N)N)C(=O)N[C@@H](CCCNC(=N)N)C(=O)N[C@H](C(=O)N[C@@H](CCCCN)C(=O)O)CNC3=O
5.66 | C[C@H]1NC(=O)[C@H](Cc2ccc(O)cc2)NC(=O)[C@H](CCCNC(=N)N)NC(=O)[C@H](Cc2ccc3ccccc3c2)NC(=O)[C@H]2CCCCN2C(=O)[C@@H](CC(=O)O)NC(=O)CN(C)C(=O)[C@@H]2CCCN2C(=O)c2cc3cc(c2)C(=O)NC[C@H](NC1=O)C(=O)N[C@@H](Cc1ccccc1)C(=O)N[C@@H](Cc1ccc2ccccc2c1)C(=O)N[C@@H](CCCNC(=N)N)C(=O)N[C@@H](CCCNC(=N)N)C(=O)N[C@@H](CCCNC(=N)N)C(=O)N[C@@H](CCCNC(=N)N)C(=O)N[C@H](C(=O)N[C@@H](CCCCN)C(=O)O)CNC3=O
5.68 | C[C@@H]1NC(=O)[C@H](CCCNC(=N)N)NC(=O)[C@H](Cc2ccc3ccccc3c2)NC(=O)[C@H]2CCCCN2C(=O)[C@@H](CC(=O)O)NC(=O)CN(C)C(=O)[C@@H]2CCCN2C(=O)c2cc3cc(c2)C(=O)NC[C@@H](C(=O)N[C@@H](CCCCN)C(=O)O)NC(=O)[C@H](CCCNC(=N)N)NC(=O)[C@H](CCCNC(=N)N)NC(=O)[C@H](CCCNC(=N)N)NC(=O)[C@H](CCCNC(=N)N)NC(=O)[C@H](Cc2ccc4ccccc4c2)NC(=O)[C@H](Cc2ccccc2)NC(=O)[C@H](CNC3=O)NC(=O)CCNC1=O
5.76 | C[C@@H]1NC(=O)CCNC(=O)[C@H](CCCNC(=N)N)NC(=O)[C@H](Cc2ccc3ccccc3c2)NC(=O)[C@H]2CCCCN2C(=O)[C@@H](CC(=O)O)NC(=O)CN(C)C(=O)[C@@H]2CCCN2C(=O)c2cc3cc(c2)C(=O)NC[C@@H](C(=O)N[C@@H](CCCCN)C(=O)O)NC(=O)[C@H](CCCNC(=N)N)NC(=O)[C@H](CCCNC(=N)N)NC(=O)[C@H](CCCNC(=N)N)NC(=O)[C@H](CCCNC(=N)N)NC(=O)[C@H](Cc2ccc4ccccc4c2)NC(=O)[C@H](Cc2ccccc2)NC(=O)[C@H](CNC3=O)NC1=O
5.77 | C[C@@H]1NC(=O)[C@H](CCCNC(=N)N)NC(=O)[C@H](Cc2ccc3ccccc3c2)NC(=O)[C@H]2CCCCN2C(=O)[C@@H]([C@H](C)O)NC(=O)[C@H](Cc2cnc[nH]2)NC(=O)[C@@H](Cc2ccccc2)NC(=O)c2cc3cc(c2)C(=O)NC[C@H](NC(=O)[C@@H](C)NC1=O)C(=O)N[C@@H](Cc1ccccc1)C(=O)N[C@@H](Cc1ccc2ccccc2c1)C(=O)N[C@@H](CCCNC(=N)N)C(=O)N[C@@H](CCCNC(=N)N)C(=O)N[C@@H](CCCNC(=N)N)C(=O)N[C@@H](CCCNC(=N)N)C(=O)N[C@H](C(=O)N[C@@H](CCCCN)C(=O)O)CNC3=O
5.86 | C[C@@H]1NC(=O)[C@H](CCCNC(=N)N)NC(=O)[C@H](Cc2ccc3ccccc3c2)NC(=O)[C@H]2CCCCN2C(=O)[C@@H]([C@H](C)O)NC(=O)[C@H](Cc2ccc(F)cc2)NC(=O)[C@@H](Cc2ccccc2)NC(=O)c2cc3cc(c2)C(=O)NC[C@H](NC(=O)[C@@H](Cc2ccccc2)NC1=O)C(=O)N[C@@H](CCCNC(=N)N)C(=O)N[C@@H](CCCNC(=N)N)C(=O)N[C@@H](Cc1ccc2ccccc2c1)C(=O)N[C@@H](Cc1ccccc1)C(=O)N[C@@H](CCCNC(=N)N)C(=O)N[C@@H](CCCNC(=N)N)C(=O)N[C@H](C(=O)N[C@@H](CCCCN)C(=O)O)CNC3=O
6.01 | C[C@@H]1NC(=O)[C@H](CCCNC(=N)N)NC(=O)[C@H](Cc2ccc3ccccc3c2)NC(=O)[C@H]2CCCCN2C(=O)[C@@H]([C@H](C)O)NC(=O)[C@H](Cc2ccc(F)cc2)NC(=O)[C@@H](Cc2ccccc2)NC(=O)c2cc3cc(c2)C(=O)NC[C@H](NC(=O)[C@@H](Cc2ccccc2)NC1=O)C(=O)N[C@@H](CCCNC(=N)N)C(=O)N[C@@H](CCCNC(=N)N)C(=O)N[C@@H](CCCNC(=N)N)C(=O)N[C@@H](CCCNC(=N)N)C(=O)N[C@@H](Cc1ccc2ccccc2c1)C(=O)N[C@@H](Cc1ccccc1)C(=O)N[C@H](C(=O)N[C@@H](CCCCN)C(=O)O)CNC3=O
6.14 | C[C@H]1NC(=O)[C@H](CCCNC(=N)N)NC(=O)[C@H](CCCNC(=N)N)NC(=O)[C@H](Cc2ccc3ccccc3c2)NC(=O)[C@H]2CCCCN2C(=O)[C@@H](CC(=O)O)NC(=O)CN(C)C(=O)[C@@H]2CCCN2C(=O)c2cc3cc(c2)C(=O)NC[C@H](NC1=O)C(=O)N[C@@H](Cc1ccccc1)C(=O)N[C@@H](Cc1ccc2ccccc2c1)C(=O)N[C@@H](CCCNC(=N)N)C(=O)N[C@@H](CCCNC(=N)N)C(=O)N[C@@H](CCCNC(=N)N)C(=O)N[C@@H](CCCNC(=N)N)C(=O)N[C@H](C(=O)N[C@@H](CCCCN)C(=O)O)CNC3=O
6.35 | C[C@@H]1NC(=O)[C@H](CCCNC(=N)N)NC(=O)[C@H](Cc2ccc3ccccc3c2)NC(=O)[C@H]2CCCCN2C(=O)[C@@H]([C@H](C)O)NC(=O)[C@H](Cc2ccc(F)cc2)NC(=O)[C@@H](Cc2ccccc2)NC(=O)c2cc3cc(c2)C(=O)NC[C@H](NC(=O)[C@@H](Cc2ccccc2)NC1=O)C(=O)N[C@@H](CCCNC(=N)N)C(=O)N[C@@H](Cc1ccc2ccccc2c1)C(=O)N[C@@H](CCCNC(=N)N)C(=O)N[C@@H](Cc1ccccc1)C(=O)N[C@@H](CCCNC(=N)N)C(=O)N[C@@H](CCCNC(=N)N)C(=O)N[C@H](C(=O)N[C@@H](CCCCN)C(=O)O)CNC3=O
